One data set concerns FoxP3+ Treg cells. Description: formation of FoxP3+ Treg cells (FIG. 3). The data set is classed as cell-based.
Another data set relates to Th 17 cells. Nature of the data set: formation of Th17 cells (FIG. 3). In kind it is cell-based.
In another data set the test system is Treg cell. Description: in vitro Treg cell differentiation from naive CD4+ T cells (FoxP3-GFP, flow cytometry). In kind it is cell-based, mouse. The conditions noted are these: in vitro assay. As to the method:
(§1) To determine whether a RARα selective agonist could affect T cell differentiation, T cells were incubated with a RARα selective agonist to determine its effect on Foxp3 expression. Naive CD4^+ […] cells were purified from a Foxp3-GFP mouse using flow cytometry by sorting and isolating based upon a GFP^+ phenotype. These cells were activated polyclonally with αCD3 in vitro in the presence of IL-2 and TGF-β. These cells were then cultured in media with various concentrations of compound 5183 (a RARα selective agonist) and the expression of FoxP3-GFP was analyzed by flow cytometry. The RARα selective agonist compound 5183 enhanced differentiation of immunosuppressive Treg cells and inhibited differentiation of inflammatory TH17 cells from naëve T cells in vitro (Table 2).

The test system of the next data set is CD4+ T cells. Nature of the data set: in vivo T cell differentiation in mice (FoxP3 expression in CD4+ T cells of blood and spleen). The arrangement: species or system mouse. The conditions noted are these: in vivo assay. The method, then: To expand on the finding above, the in vivo effects of a RARα selective agonist on T cell differentiation was evaluated in a mouse model. Mice were treated with 100 μg of compound 5183 (a RARα agonist) or an equivalent volume of DMSO (vehicle control) every other day for 10 days. Lympocytes from the blood and spleen were then isolated and FoxP3 expression in CD4^+ T cells was assessed.

The next data set has as its system Th17 cell. Nature of the data set: in vitro Th17 cell differentiation from naive T cells. In kind it is cell-based, mouse. The conditions noted are these: in vitro assay. As to the method:
as §1

Another data set deals with B16F10 tumor cells. Nature of the data set: B16F10 melanoma engrafted C57BL/6 mice, survival. The data set is classed as in vivo. The method, then: The anti-tumor effects of anti-CTLA-4 antibody treatment combined with 10 nM […] agonist (AGN204647 (IRX4647)) are examined in C57BL/6 mice engrafted with B16F10 tumor cells.
Setting [1] is: combination with anti-CTLA-4 antibody.

As for `CC(/C=C/[C@@H]1C[C@]1(C)c1ccc2c(c1)C(C)(C)CCC2(C)C)=C\C(=O)O` [IRX4204], the “formation of FoxP3+ Treg cells” value with FoxP3+ Treg cells is “promotes the formation of FoxP3+ Treg cells”. For the same compound, the “formation of Th 17 cells” value in the data set on Th 17 cells is “inhibits the formation of Th 17 cells”.
As for `CCOc1c(Br)cc(C(=O)Nc2ccc(C(=O)O)cc2)cc1C(=O)c1ccc(C)cc1` [AGN196996], the Treg cell numbers result in the data set on Treg cell and in the data set with CD4+ T cells was “decreases Treg cell numbers” each time. In addition, the Th17 cell numbers result with CD4+ T cells and with Th17 cell was “increases Th17 cell numbers” each time.
`CC1(C)CCC(C)(C)c2cc(C(/C=C/c3cccc(C(=O)O)c3)=N/O)ccc21` [AGN204647]: the “survival rate at 50 days” value in the data set with B16F10 tumor cells (agent alone, vehicles only 0%) amounted to 30%. Also, in the data set with B16F10 tumor cells (combination of anti-CTLA-4 antibody and 10 nM RARγ agonist AGN204647), the “survival at 50 days” value was found to be 100%. In the data set on B16F10 tumor cells (setting [1]), the “resistance of surviving mice to tumor re-challenge” value was “resistant to re-challenge with twice the dose of live tumor cells” and the toxicity result is reported as “without signs of acute or delayed toxicity”.

The record behind these values is patent US11648223B2, “Receptor subtype and function selective retinoid and rexinoid compounds in combination with immune modulators for cancer immunotherapy” (Io Therapeutics, Inc., priority 2016, dated 2023).
